According to patent US20230242538A1, “PanK Modulators and Methods Using Same” (YALE UNIVERSITY, priority 2020, published 2023):
≈ marks a conversion by molar mass, not a printed value. Read-outs that look alike come from different tables or passages of the source.

Key:
[1] = test system: WT cells (Saccharomyces cerevisiae); assay: Liquid growth assay in minimal medium, WT yeast; assay type: cell-based
From the text: (§1) Yeast strains (Saccharomyces cerevisiae) used in this study are JS91.15-23 (MATα his3 leu2 trp1 ura3) and JS91.14-24 (MATa ura3 his3 cab1ts) (Olzhausen, et al., 2009, Curr Genet 55, 163-173). Wild type and mutant strains were propagated either in YPD medium (2% bacto-peptone, 2% D-(+)-glucose and 1% yeast extract) or defined pantothenic acid-free (minimal) medium composed of Yeast Nitrogen Base (MP Biomedicals), supplemented with Complete Supplement Mixture (MP Biomedicals) and all vitamins except pantothenic acid. Where indicated, media were supplemented with appropriate concentrations of pantothenic acid.
(§2) Spotting assay were performed as follows. Pre-cultures of WT and cab1^ts yeast strains were prepared in YPD medium overnight at 30° C. Cells were harvested, washed, and diluted to 10^8 cells in 500 μL sterile water. Subsequent serial dilutions were made and 5 μL of cell suspensions were spotted on YPD agar plates lacking or supplemented with amorolfine 10 ng/mL, amphotericin B 1 μg/mL, fluconazole 10 μg/mL or terbinafine 10 μg/mL to achieve 10^6, 10^5, 10^4, 10^3, 10^2, and 10^1 cells per spot. Plates were incubated at 30° C. or 37° C. and imaged every 24 hours. For liquid assay in 96-well plate format, cells were pre-cultured overnight in liquid YPD medium at 30° C., washed three times in water and diluted to achieve 10^4 cells per well in 150 μL of minimal medium supplemented with 1 μM, 10 μM or 100 μM pantothenic acid and either lacking or supplemented with terbinafine (160 μg/ml). All plates were incubated at 30° C. Optical density measurements were taken with a BioTek SynergyMx microplate reader (OD630) every 8 hours for a total of 96 hours. Relative time to mid-log phase was calculated by first graphing growth curves of the varying concentrations of terbinafine for each concentration of pantothenic acid, and then determining the value at which the untreated curve reached saturation, and dividing it by 2 to represent the mid-log value. Dividing the time to mid-log phase of treated cells by the time to mid-log phase of untreated gave the relative time to mid-log phase.

[2] = test system: cab1^ts cells (Saccharomyces cerevisiae JS91.14-24); assay: Spotting assay on YPD agar, cab1ts yeast; assay type: cell-based; settings: 30° C., 48 hours; amorolfine 10 ng/mL, fluconazole 10 μg/mL, terbinafine 10 μg/mL, amphotericin B 1 μg/mL
From the text: as §1, §2

[3] = test system: WT cells (Saccharomyces cerevisiae); assay: Drug-drug interaction with α-PanAm, checkerboard / isobologram; assay type: cell-based; settings: n=2
Protocol: Clin. Microbiol. 43:140-143. The isobologram was produced by solving for the sum 50% fractional inhibitory concentration (ΣFIC50) using the equation: The data from the time-point where the 0 μg/mL terbinafine curve reached saturation was used to generate percent inhibition values, representing growth inhibition based on the concentration of terbinafine. This was done by dividing the value of interest by the untreated (0 μg/mL terbinafine) value, multiplying by 100 to get a percentage, and then subtracting that percentage from 100, representing 100% inhibition. The resulting values were used to create an inhibition curve, using the best fit function to generate an MIC50. […] The resulting MIC50 values were plugged into the ΣFIC50 equation, and the ΣFIC50 values were used to generate the curve.

[4] = test system: WT cells (Saccharomyces cerevisiae JS91.15-23); assay: Spotting assay on YPD agar, WT yeast; assay type: cell-based; settings: 30° C., 48 hours; amorolfine 10 ng/mL, fluconazole 10 μg/mL, terbinafine 10 μg/mL, amphotericin B 1 μg/mL
From the text: as §1, §2

[5] = test system: cab1^ts cells (Saccharomyces cerevisiae); assay: Liquid growth assay in minimal medium, cab1ts yeast; assay type: cell-based; settings: for relative time to mid-log phase in the presence vs. absence of the drug: 160 μg/mL terbinafine
From the text: as §1, §2

yeast = settings: cited from earlier work
[6] = 1 μg/mL amphotericin B, 1 μM PA

Row | SMILES | relative time to mid-log phase in the presence vs. absence of the drug [1, 6] | growth of WT cells in liquid medium ([1]; 1 μg/mL amphotericin B, 100 μM PA) | growth of cab1^ts cells on YPD agar in the presence of the drug [2] | drug-drug interaction pattern with α-PanAm (isobologram) [3] | growth of WT cells on YPD agar in the presence of the drug [4] | growth of cab1^ts cells in liquid medium [5, 6] | mid-log phase reached at (time) ([1]; 100 μM PA, single agent: squalene 100 μg/mL or terbinafine 80 μg/mL) [hours] | mid-log phase reached at (time) ([1]; 100 μM PA, terbinafine 80 μg/mL in the presence of 100 μg/mL squalene) [hours] | relative time to mid-log phase in the presence vs. absence of the drug ([1]; 160 μg/mL terbinafine, 1 μM PA) | relative time to mid-log phase in the presence vs. absence of the drug ([1]; 160 μg/mL terbinafine, 10 μM PA) | relative time to mid-log phase in the presence vs. absence of the drug ([1]; 160 μg/mL terbinafine, 100 μM PA) | relative time to mid-log phase in the presence vs. absence of the drug ([5]; 1 μM PA) | relative time to mid-log phase in the presence vs. absence of the drug ([5]; 10 μM PA) | relative time to mid-log phase in the presence vs. absence of the drug ([5]; 100 μM PA) | MIC50 (yeast; medium supplemented with 1 μM pantothenic acid) [µg/mL] | MIC50 (yeast; medium with 100 nM pantothenic acid) [µg/mL]
1 | C[C@@H]1[C@H](O)[C@@H](C)/C=C/C=C/C=C/C=C/C=C/C=C/C=C/[C@H](O[C@@H]2O[C@H](C)[C@@H](O)[C@H](N)[C@@H]2O)C[C@@H]2O[C@](O)(C[C@@H](O)C[C@@H](O)[C@H](O)CC[C@@H](O)C[C@@H](O)CC(=O)O[C@H]1C)C[C@H](O)[C@H]2C(=O)O [amphotericin B] | 2.1 | not significantly affected | reduced dramatically | synergism | only slightly inhibited | did not grow whatsoever | – | – | – | – | – | – | – | – | – | –
2 | CN(C/C=C/C#CC(C)(C)C)Cc1cccc2ccccc12 [terbinafine] | – | – | not affected | antagonism | greatly reduced | – | 47 | 61 | 1.8 | 2.1 | 2.3 | 1.1 | 1.4 | 1.6 | – | –
3 | CC(CNC(=O)[C@H](O)C(C)(C)CO)C(=O)NCCc1ccccc1 (stereo partly drawn) [α-PanAm] | – | – | – | – | – | – | – | – | – | – | – | – | – | – | ~7.6 (≈ 22.6 µM) | ~1.9 (≈ 5.65 µM)
